Patent publication US11506670B2, “Method of genome-wide direct identification of electrophile-sensing targets” (Cornell University, priority 2018, dated 2022)

Tests used:
[1] = test system: ten HaloTag proteins in HEK-293 cells; test: T-REX gel-based screen of Halo ORF clones for HNE-sensitive targets; assay type: cell-based
Protocol: Individual wells in a 48-well plate contained live HEK-293 cells ectopically expressing a unique HaloTagged gene of interest. The cells were subjected to T-REX™ delivery-HNE(alkyne) targeting on demand. Post cell lysis, all samples were treated with TEV protease and subsequently subjected to Click coupling reaction with Cy5 azide. Probing with Halo antibody allowed evaluation of expression level (and/or solubility under the lysis conditions used). […] For example, RRM1, PRKCD, p53R2, and Keap1 (positive control) had roughly similar expression levels. Only RRM1 and Keap1 were HNE-sensitive although all four targets have been previously identified to be potentially redox/HNE-sensitive (Holmstrom et al., “Cellular Mechanisms and Physiological Consequences of Redox-Dependent Signalling,” Nat. Rev. Mol. Cell. Biol. 15:411-21 (2014); Jacobs et al., “Systems Analysis of Protein Modification and Cellular Responses Induced by Electrophile Stress,” Acc. Chem. Res. 43:673-83 (2010); Delmastro-Greenwood et al., “Redox-Dependent Anti-Inflammatory Signaling Actions of Unsaturated Fatty Acids,” Annu. Rev. Physiol. 76:79-105 (2014); Crunkhorn S., “Deal Watch: Abbott Boosts Investment in NRF2 Activators for Reducing Oxidative Stress,” Nat. Rev. Drug Discov. […]

[2] = test system: Nrf2-AR pathway; test: Flow cytometry ARE-GFP reporter assay; assay type: cell-based, human
Protocol: (i) Transient transfection using TransIT-2020. Perform the transfection as described in Step 40 Option (C) (i). Briefly: Transfect the cells with ARE:GFP, pFN21a-Halo-Keap1, and pcDNA3.1 myc-Nrf2 in a 3:1:1 ratio by mass. For transient transfection of cells in a single well of a 48-well plate, in 26 μL of antibiotic-free, serum-free media add 156 ng of ARE:GFP, 52 ng of pFN21a-Halo-TEV-Keap1, and 52 ng of pcDNA3.1 myc-Nrf2 (260 ng total) followed by the addition of 0.78 μL of TransIT-2020. The lipoplex is mixed gently and incubated at room temperature for 20 min.
(iv) Treatment of cells with T-REX™ delivery photocaged precursor and photo-uncaging (TIMING: 7 hours). […]
In this flow cytometry assay, live cells are first gated by forward (size) and side scatter to give a general population of healthy cells (FIG. 26A). […] Analyzing this scatter group for green fluorescence (AR reporter) told a slightly different story to that painted by previous ensemble experiments (Parvez et al., “Substoichiometric Hydroxynonenylation of a Single Protein Recapitulates Whole-Cell-Stimulated Antioxidant Response,” J. Am. Chem. Soc. 137:10-13 (2015); Lin et al., “A Generalizable Platform for Interrogating Target- and Signal-Specific Consequences of Electrophilic Modifications in Redox-Dependent Cell Signaling,” J. Am. Chem. Soc. 137:6232-44 (2015), which are hereby incorporated by reference in their entirety).

## CCCCCC(O)/C=C/C=O (stereo not drawn) [HNE, 4-hydroxynonenal]
[1]
  proteins modified by HNE in the screen besides positive control Keap1: RRM1 and HSPB7
[2]; T-REX delivery on Halo-Keap1
  AR-driven GFP signal: increase in AR in all but cells with the highest basal AR
[2]; whole-cell HNE treatment
  AR-driven GFP signal: strongly increases AR in a subset of cells
